# Results taken from ChEMBL document CHEMBL4825658, “Discovery of 3-(4-(2-((1H-Indol-5-yl)amino)-5-fluoropyrimidin-4-yl)-1H-pyrazol-1-yl)propanenitrile Derivatives as Selective TYK2 Inhibitors for the Treatment of Inflammatory Bowel Disease” (J Med Chem, 2021).
# Experiments:
# [1] = Metabolic stability in cryopreserved human liver microsomes assessed as half life; format: ADME, Microsome
# [2] = molecular target: Non-receptor tyrosine-protein kinase TYK2 (Homo sapiens, UniProt P29597); assay: Inhibition of recombinant human TYK2 (875 to end residues) using GGMEDIYFEFMGG as substrate incubated for 40 mins in presence of [gamma33P]ATP by scintillation counting based radiometry assay
# [3] = molecular target: Tyrosine-protein kinase JAK2 (Homo sapiens, UniProt O60674); assay: Inhibition of recombinant human JAK2 (808 to end residues) KTFCGTPEYLAPE as substrate measured after 40 mins in presence of [gamm33P]ATP by scintillation counting based radiometry assay
# [4] = molecular target: Tyrosine-protein kinase JAK1 (Homo sapiens, UniProt P23458); assay: Inhibition of human JAK1 (866 to end residues) using GEEPLYWSFPAKKK as substrate after 40 mins in presence of [gamma33P]ATP by scintillation counting based radiometry assay
# [5] = molecular target: T1, Tyrosine-protein kinase JAK3 (Homo sapiens, UniProt P52333); assay: Inhibition of recombinant human JAK3 (781 to end residues) using GGEEEEYFELVKKKK as substrate measured after 40 mins in presence of [gamma33P]ATP by scintillation counting based radiometry assay
# T1 sequence (P52333 whole entry): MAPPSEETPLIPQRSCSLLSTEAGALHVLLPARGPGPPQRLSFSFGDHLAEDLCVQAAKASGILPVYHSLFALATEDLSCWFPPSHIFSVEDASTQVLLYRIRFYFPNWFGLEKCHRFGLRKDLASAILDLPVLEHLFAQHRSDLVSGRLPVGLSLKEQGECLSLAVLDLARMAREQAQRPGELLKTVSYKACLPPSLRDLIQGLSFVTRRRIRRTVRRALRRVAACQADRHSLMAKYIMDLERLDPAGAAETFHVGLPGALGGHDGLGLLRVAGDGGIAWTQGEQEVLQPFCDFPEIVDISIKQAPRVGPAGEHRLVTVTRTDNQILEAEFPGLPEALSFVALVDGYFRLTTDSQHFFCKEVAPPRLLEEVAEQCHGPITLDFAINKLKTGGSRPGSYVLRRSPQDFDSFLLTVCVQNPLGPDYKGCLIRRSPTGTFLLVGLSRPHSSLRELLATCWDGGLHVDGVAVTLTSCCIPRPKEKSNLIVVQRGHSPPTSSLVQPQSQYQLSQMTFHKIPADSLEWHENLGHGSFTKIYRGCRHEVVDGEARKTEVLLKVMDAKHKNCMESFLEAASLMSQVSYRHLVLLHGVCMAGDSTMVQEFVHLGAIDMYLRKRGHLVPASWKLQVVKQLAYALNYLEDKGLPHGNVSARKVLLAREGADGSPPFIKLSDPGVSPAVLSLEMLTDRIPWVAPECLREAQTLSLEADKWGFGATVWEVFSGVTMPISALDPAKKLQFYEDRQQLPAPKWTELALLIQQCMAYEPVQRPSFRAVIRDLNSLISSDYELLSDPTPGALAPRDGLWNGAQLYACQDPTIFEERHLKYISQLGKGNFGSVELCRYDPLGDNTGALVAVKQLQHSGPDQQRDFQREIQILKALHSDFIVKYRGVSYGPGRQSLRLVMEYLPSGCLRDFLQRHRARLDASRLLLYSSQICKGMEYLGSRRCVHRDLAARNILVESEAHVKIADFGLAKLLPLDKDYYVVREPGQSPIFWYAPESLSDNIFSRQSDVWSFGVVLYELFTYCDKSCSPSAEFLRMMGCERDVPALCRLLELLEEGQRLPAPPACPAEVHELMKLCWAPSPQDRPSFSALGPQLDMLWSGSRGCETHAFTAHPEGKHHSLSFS
# Homo sapiens = organism: Homo sapiens; assay: Selectivity index, ratio of IC50 for inhibition of recombinant human JAK2 (808 to end residues) to IC50 for inhibition of recombinant human TYK2 (875 to end residues)
# Sequence of Tyrosine-protein kinase JAK1 (P23458 whole entry): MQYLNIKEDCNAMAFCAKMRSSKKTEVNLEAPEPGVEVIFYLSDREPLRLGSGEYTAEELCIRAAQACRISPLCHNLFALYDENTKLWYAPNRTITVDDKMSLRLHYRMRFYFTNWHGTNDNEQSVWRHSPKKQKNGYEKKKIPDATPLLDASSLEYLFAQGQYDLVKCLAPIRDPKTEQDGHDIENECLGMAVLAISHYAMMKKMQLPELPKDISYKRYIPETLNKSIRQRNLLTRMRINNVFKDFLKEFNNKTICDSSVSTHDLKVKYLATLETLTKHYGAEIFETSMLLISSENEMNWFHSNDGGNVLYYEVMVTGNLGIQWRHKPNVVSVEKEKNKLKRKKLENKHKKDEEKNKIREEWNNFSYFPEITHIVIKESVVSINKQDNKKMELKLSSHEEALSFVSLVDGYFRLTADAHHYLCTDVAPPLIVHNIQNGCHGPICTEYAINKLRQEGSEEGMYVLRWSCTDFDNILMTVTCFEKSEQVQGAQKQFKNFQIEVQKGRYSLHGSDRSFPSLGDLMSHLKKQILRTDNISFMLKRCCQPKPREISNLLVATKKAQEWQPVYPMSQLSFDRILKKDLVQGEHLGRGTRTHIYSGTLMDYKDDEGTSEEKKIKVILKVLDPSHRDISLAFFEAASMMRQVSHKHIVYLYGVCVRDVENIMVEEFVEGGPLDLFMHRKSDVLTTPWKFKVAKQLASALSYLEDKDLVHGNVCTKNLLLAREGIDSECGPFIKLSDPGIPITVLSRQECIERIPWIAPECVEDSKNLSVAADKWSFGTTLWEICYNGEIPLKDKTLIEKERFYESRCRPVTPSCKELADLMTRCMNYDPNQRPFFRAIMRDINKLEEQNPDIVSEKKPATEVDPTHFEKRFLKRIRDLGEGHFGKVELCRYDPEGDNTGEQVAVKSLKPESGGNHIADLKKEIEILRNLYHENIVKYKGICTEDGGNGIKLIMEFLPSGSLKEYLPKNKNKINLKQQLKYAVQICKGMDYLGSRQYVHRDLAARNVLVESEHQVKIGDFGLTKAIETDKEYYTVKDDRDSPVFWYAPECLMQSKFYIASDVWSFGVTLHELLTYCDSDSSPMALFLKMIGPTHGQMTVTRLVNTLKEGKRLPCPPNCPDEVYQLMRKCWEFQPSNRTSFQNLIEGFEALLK
# Sequence of Tyrosine-protein kinase JAK2 (O60674 whole entry): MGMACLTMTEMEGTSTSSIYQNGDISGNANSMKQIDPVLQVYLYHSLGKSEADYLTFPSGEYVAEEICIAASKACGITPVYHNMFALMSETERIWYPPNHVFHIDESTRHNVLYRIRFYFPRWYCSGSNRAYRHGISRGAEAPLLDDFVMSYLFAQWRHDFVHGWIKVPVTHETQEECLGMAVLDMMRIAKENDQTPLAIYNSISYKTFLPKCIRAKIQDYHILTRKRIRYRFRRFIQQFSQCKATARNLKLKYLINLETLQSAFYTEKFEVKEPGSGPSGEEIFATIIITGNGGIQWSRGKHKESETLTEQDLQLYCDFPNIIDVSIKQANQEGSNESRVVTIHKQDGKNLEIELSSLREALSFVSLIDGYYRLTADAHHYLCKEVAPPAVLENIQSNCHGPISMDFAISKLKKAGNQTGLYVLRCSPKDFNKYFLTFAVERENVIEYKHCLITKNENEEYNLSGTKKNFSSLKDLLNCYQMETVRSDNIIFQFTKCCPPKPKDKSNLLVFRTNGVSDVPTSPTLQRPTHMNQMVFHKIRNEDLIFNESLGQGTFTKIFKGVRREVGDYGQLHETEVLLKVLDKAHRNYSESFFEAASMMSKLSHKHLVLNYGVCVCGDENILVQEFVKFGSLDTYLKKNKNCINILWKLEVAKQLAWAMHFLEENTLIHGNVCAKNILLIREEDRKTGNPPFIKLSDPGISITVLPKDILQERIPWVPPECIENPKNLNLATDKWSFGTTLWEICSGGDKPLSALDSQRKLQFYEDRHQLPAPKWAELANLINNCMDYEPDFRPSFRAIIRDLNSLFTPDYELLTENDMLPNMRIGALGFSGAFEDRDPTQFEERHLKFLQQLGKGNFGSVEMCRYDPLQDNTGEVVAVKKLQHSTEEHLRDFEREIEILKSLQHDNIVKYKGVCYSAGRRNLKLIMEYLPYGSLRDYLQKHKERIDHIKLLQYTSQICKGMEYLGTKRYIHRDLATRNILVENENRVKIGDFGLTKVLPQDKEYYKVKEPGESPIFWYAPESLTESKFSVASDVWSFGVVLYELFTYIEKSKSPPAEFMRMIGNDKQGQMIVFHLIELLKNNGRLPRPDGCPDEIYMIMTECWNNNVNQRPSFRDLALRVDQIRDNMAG
# Sequence of Non-receptor tyrosine-protein kinase TYK2 (P29597 whole entry): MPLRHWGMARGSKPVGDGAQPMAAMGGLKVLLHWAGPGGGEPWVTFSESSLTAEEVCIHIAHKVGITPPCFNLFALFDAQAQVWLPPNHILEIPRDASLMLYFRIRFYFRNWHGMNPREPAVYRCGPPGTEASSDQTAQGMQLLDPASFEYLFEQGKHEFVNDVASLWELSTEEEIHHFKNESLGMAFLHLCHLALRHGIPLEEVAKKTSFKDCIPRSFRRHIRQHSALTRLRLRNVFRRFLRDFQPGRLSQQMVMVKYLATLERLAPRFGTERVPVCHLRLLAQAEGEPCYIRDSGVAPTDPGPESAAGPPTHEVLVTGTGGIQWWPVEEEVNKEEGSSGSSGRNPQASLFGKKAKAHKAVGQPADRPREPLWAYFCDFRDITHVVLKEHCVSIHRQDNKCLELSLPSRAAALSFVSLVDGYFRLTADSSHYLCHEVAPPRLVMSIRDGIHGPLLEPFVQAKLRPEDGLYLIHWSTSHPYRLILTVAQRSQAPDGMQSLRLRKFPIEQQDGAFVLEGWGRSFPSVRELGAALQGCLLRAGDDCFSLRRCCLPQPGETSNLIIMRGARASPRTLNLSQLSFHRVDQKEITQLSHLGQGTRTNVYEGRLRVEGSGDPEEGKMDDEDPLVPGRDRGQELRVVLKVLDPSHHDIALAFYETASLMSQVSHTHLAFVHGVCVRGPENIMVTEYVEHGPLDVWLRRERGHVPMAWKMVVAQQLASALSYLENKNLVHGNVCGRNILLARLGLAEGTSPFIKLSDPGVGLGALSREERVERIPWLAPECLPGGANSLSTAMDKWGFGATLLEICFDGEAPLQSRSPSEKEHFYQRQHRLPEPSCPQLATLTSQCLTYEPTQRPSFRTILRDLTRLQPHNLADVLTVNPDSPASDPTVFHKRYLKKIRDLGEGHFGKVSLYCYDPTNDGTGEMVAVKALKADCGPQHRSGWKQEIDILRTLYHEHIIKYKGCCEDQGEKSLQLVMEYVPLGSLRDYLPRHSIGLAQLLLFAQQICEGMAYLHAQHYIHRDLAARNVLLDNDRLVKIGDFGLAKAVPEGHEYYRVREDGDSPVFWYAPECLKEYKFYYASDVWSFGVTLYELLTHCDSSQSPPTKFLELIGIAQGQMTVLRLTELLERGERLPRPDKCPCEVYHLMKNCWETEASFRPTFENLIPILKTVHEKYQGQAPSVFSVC
Structure (SMILES),half-life [1] [min],IC50 [2] [nM],IC50 [3] [nM],IC50 [4] [nM],IC50 [5] [nM],Selectivity Index (Homo sapiens)
N#CCCn1cc(-c2nc(Nc3ccc4c(c3)CCN4S(=O)(=O)c3ccc(C(F)(F)F)cc3)ncc2F)cn1,9.2,9,,,,
N#CCCn1cc(-c2nc(Nc3ccc4c(ccn4C(=O)C4CC4)c3)ncc2F)cn1,69.3,151,299,,,
Cc1cnc(Nc2ccc3c(c2)CCN3S(=O)(=O)c2ccc(C(F)(F)F)cc2)nc1-c1cnn(C)c1,7.3,148,> 1000,> 1000,> 1000,
Cc1cnc(Nc2ccc3c(c2)CCN3S(=O)(=O)c2ccc3c(c2)CC(=O)N3)nc1-c1cnn(C(C)C)c1,,12.3,25,,,2.03
COc1ccc(S(=O)(=O)N2CCc3cc(Nc4ncc(C)c(-c5cnn(C(C)C)c5)n4)ccc32)cc1,,7.82,24.1,,,3.08
Cc1cnc(Nc2ccc(NS(=O)(=O)c3ccc(C(F)(F)F)cc3)c(F)c2)nc1-c1cnn(C(C)C)c1,,13,25,41,688,
Cc1cnc(Nc2ccc3c(c2)CCN3S(=O)(=O)c2ccc3c(c2)CC(=O)N3C)nc1-c1cnn(C(C)C)c1,,63,12.6,,,< 1
CCCn1cc(-c2nc(Nc3ccc4c(c3)CCN4S(=O)(=O)c3ccc(C(F)(F)F)cc3)ncc2C)cn1,2.38,23,,,,
Cc1cnc(Nc2ccc3c(c2)CCN3S(=O)(=O)c2ccc(C(F)(F)F)cc2)nc1-c1cnn(C2CCC2)c1,19.5,12,162,333,> 1000,
Cc1cnc(Nc2ccc3c(c2)CCN3C(=O)Cc2ccc(OC(F)(F)F)cc2)nc1-c1cnn(C(C)C)c1,,51.1,398,,,7.8
CC(C)(C)c1ccc(C(=O)N2CCc3cc(Nc4ncc(F)c(-c5cnn(CCC#N)c5)n4)ccc32)cc1,,40,601,,,
CCOC(C)n1cc(-c2nc(Nc3ccc4c(c3)CCN4S(=O)(=O)c3ccc(C(F)(F)F)cc3)ncc2C)cn1 (stereo unspecified),15.3,38,341,383,510,
N#CCCn1cc(-c2nc(Nc3ccc4c(ccn4S(=O)(=O)c4ccc(C(F)(F)F)cc4)c3)ncc2F)cn1,38.1,,,,,
Cc1cnc(Nc2ccc3c(c2)CCN3S(=O)(=O)c2ccc(C(F)(F)F)cc2)nc1-c1cnn(C2CC2)c1,4.13,60,,,,
Cc1cnc(Nc2ccc3c(c2)CCN3C(=O)[C@@H](O)CO)nc1-c1cnn(C(C)C)c1,,10.8,21.2,,,1.95
Cc1cnc(Nc2ccc3c(c2)CCN3C(=O)c2cccc(C(F)(F)F)c2)nc1-c1cnn(C(C)C)c1,,14.6,65.3,,,4.49
Cc1cnc(Nc2ccc3c(c2)CCN3C(=O)CCN2CCOCC2)nc1-c1cnn(C(C)C)c1,,9.64,12,,,1.24
Cc1cnc(Nc2ccc3c(c2)CCN3S(=O)(=O)c2ccc(C(F)(F)F)cc2)nc1-c1cnn(C(C)C)c1,3.94,16,82,341,> 1000,5.12
Cc1cnc(Nc2ccc3c(c2)CCN3C(=O)c2ccc(C(F)(F)F)cc2F)nc1-c1cnn(C(C)C)c1,,10.6,25.1,,,2.36
Cn1ccc2cc(Nc3ncc(F)c(-c4cnn(CCC#N)c4)n3)ccc21,7.62,18,114,,,

# Second part, the molecule after the results:
half-life [1] [min],IC50 [2] [nM],IC50 [3] [nM],IC50 [4] [nM],IC50 [5] [nM],Selectivity Index (Homo sapiens),Structure (SMILES)
,2,,,,,Cc1cnc(Nc2ccc(N3CCC(N(C)CCO)CC3)c(F)c2)nc1-c1cnn(C(C)C)c1
9.8,4,196,912,> 1000,,N#CCCn1cc(-c2nc(Nc3ccc4c(c3)CCN4S(=O)(=O)C(F)(F)F)ncc2F)cn1
3.2,2,292,,,,N#CCCn1cc(-c2nc(Nc3ccc4c(c3)CCN4)ncc2F)cn1
,6.28,10.4,,,1.65,Cc1cnc(Nc2ccc3c(c2)CCN3C(=O)[C@@H]2C[C@@H]2F)nc1-c1cnn(C(C)C)c1
,5.72,6.65,,,1.16,Cc1cnc(Nc2ccc3c(c2)CCN3C(=O)C2CC2(F)F)nc1-c1cnn(C(C)C)c1 (stereo unspecified)
> 120,2,,125,244,,N#CCCn1cc(-c2nc(Nc3ccc4c(c3)CCN4C(=O)CN3CCS(=O)(=O)CC3)ncc2F)cn1
22,2,21,84,> 1000,,Cc1cnc(Nc2ccc3c(c2)CCN3S(=O)(=O)c2ccc(C(F)(F)F)cc2)nc1-c1cnn(CCC#N)c1
17.2,5,153,,,,N#CCCn1cc(-c2nc(Nc3ccc4c(c3)CCN4C(=O)c3ccc(C(F)(F)F)cc3)ncc2F)cn1
31.8,6,28,259,191,,N#CCCn1cc(-c2nc(Nc3ccc4c(c3)CCN4C(=O)C3(C#N)CC3)ncc2F)cn1
,3.76,3.86,,,1.03,Cc1cnc(Nc2ccc3c(c2)CCN3C(=O)C2CC2)nc1-c1cnn(C(C)C)c1
56.8,7,58,,,,N#CCCn1cc(-c2nc(Nc3ccc4c(c3)CNC4=O)ncc2F)cn1
,2.05,3.8,,,1.85,Cc1cnc(Nc2ccc3c(c2)CCN3C(=O)[C@H]2CCCN2C(=O)C2(C#N)CC2)nc1-c1cnn(C(C)C)c1
,3.84,2.29,,,< 1,CCCS(=O)(=O)N1CCc2cc(Nc3ncc(C)c(-c4cnn(C(C)C)c4)n3)ccc21
,2.69,2.38,,,< 1,Cc1cnc(Nc2ccc3c(c2)CCN3S(=O)(=O)C2CC2)nc1-c1cnn(C(C)C)c1
,1.61,2.72,,,1.69,CCS(=O)(=O)N1CCc2cc(Nc3ncc(C)c(-c4cnn(C(C)C)c4)n3)ccc21
,1.99,3,,,1.51,Cc1cnc(Nc2ccc3c(c2)CCN3C(=O)CN2CCS(=O)(=O)CC2)nc1-c1cnn(C(C)C)c1
,1.81,6,,,3.31,CC(=O)N1CCc2cc(Nc3ncc(C)c(-c4cnn(C(C)C)c4)n3)ccc21
,5,3,,,< 1,Cc1cnc(Nc2ccc3c(c2)CCN3C(=O)[C@H]2CCCN2)nc1-c1cnn(C(C)C)c1
7.79,0.67,1.1,,,,Cc1cnc(Nc2ccc3c(c2)CNC3=O)nc1-c1cnn(CCC#N)c1
